Patent US20040261578A1, “Stable self-organizing plant-organism systems for remediating polluted soils and waters” (priority 2003, published 2004)

Key:
[1] = test system: wheat seedlings; conditions: 15000 ppm Prussian blue; 4.5 cm in its absence
Excerpt: Ten wheat seeds were germinated in petri dishes containing approximately 50 g of grit sand. Each dish was moistened with plant nutrient solution in the presence or absence of 15000 ppm metallocyanide Prussian blue.

[2] = test system: maize inbred line Mo17; test: Shoot length of Mo17 after soil treatments and T22 seed treatment, Arkport sandy loam field soil; type: in vivo; conditions: no seed treatment, soil drenched with mefenoxam, seven days after planting
Description: Ten-day assays were conducted in larger boxes (5×11×11 cm). Four or five seeds, either treated or not treated with T22, were planted in each box and plants were grown for various lengths of time with 12 hr diurnal fluorescent lighting and were watered as needed. In some experiments, soils were autoclaved to examine maize growth responses in the absence of natural soil pathogens. In addition, some soils were drenched with mefenoxam ((R)-2-[2,6-dimethylphenyl)-methoxyacetylamino]-propionic acid methyl ester]; Subdue MAXX, Novartis, Research Triangle, NC) according to the manufacturer's directions.

SMILES	Mean root length of the wheat seedlings [1] [cm]	Shoot length [2] [ab xy mm]
[C-]#N.[C-]#N.[C-]#N.[C-]#N.[C-]#N.[C-]#N.[C-]#N.[C-]#N.[C-]#N.[C-]#N.[C-]#N.[C-]#N.[C-]#N.[C-]#N.[C-]#N.[C-]#N.[C-]#N.[C-]#N.[Fe+2].[Fe+2].[Fe+2].[Fe+3].[Fe+3].[Fe+3].[Fe+3] [Prussian blue, Fe4 [Fe(CN)6]3]	2.0	–
COCC(=O)N(c1c(C)cccc1C)[C@H](C)C(=O)OC [mefenoxam]	–	63
